As usually defined, the pIC50 is the negative decadic logarithm of the IC50, by convention in mol/L.

pIC50: −log10 of the molar value. Where two headings read alike, the source gives them in different places.

One test concerns the target VIM-1 (Pseudomonas aeruginosa, UniProt A0A0F7KYQ8). Briefly: Enzyme activity: determination of IC50, fluorescence assay with CCF2-FA substrate. In kind it is biochemical. Particulars: enzyme 30 pM, CCF2-FA 1.25 μM, 2 hours at 25° C.; read-out: VIM1 IC50. An outline of the steps: (§1)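 In pH 7 phosphate buffer (100 mM) with 10 μM ZnSO4 and 0.005% Tween-20, CCF2-FA substrate (1.25 μM final) was hydrolysed for 2 h at 25 °C by NDM-1, IMP-1 or VIM-1 at 1, 2 or 30 pM in the presence of inhibitor at 20–0.00063 μM. Emission 460 nm/excitation 405 nm; 4-parameter curve fit gave IC50.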

A further test deals with NDM-1 (Klebsiella pneumoniae, UniProt C7C422). The description is as above. In kind it is biochemical. Particulars: CCF2-FA 1.25 μM, 2 hours at 25° C. An outline of the steps: as §1
Sequence of NDM-1 (C7C422 29-270, looked up, species assumed): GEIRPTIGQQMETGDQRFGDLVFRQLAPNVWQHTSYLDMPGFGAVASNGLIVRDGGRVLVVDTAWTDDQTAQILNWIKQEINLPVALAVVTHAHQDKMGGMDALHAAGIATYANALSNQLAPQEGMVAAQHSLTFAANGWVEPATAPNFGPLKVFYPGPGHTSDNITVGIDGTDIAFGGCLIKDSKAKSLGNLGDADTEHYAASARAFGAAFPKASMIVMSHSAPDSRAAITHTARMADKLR
The target in a further test is IMP-1 (Serratia marcescens, UniProt P52699). The description is as above. In kind it is biochemical. The note with it: enzyme 2 pM, CCF2-FA 1.25 μM, 2 hours at 25° C.; read-out: IMP1 IC50. An outline of the steps:
as §1

Test [1] deals with Escherichia coli expressing NDM-1 (CLB30005). Briefly: Antibiotic potentiation activity: synergistic concentration (MITC95) with imipenem, growth by OD600. In kind it is cell-based. Particulars: 95% inhibition of bacterial growth, strain CLB30005. An outline of the steps:
(§2)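 MITC95 = lowest inhibitor concentration giving 95% growth inhibition, read by absorbance after 22–24 h at 35° C. Compound range 200 μM to 0.195 μM, imipenem fixed at 1 or 4 μg/ml, bacteria in 1.1×CAMHB from saline suspension diluted 1:100.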

Test [2] concerns Klebsiella pneumoniae expressing VIM-1 (IHMA599644). Described as above. The test is classed as cell-based. The note with it: 95% inhibition of bacterial growth, strain IHMA599644. An outline of the steps: as §2
The subject of test [3] is Serratia marcescens expressing IMP-1 (CL5741). The description is as above. In kind it is cell-based. The note with it: 95% inhibition of bacterial growth, strain CL5741. An outline of the steps:
as §2

The mark [4] stands for this setting: enzyme 1 pM, read-out: NDM1 IC50.

Sequence of IMP-1 (P52699 19-246, looked up, species assumed): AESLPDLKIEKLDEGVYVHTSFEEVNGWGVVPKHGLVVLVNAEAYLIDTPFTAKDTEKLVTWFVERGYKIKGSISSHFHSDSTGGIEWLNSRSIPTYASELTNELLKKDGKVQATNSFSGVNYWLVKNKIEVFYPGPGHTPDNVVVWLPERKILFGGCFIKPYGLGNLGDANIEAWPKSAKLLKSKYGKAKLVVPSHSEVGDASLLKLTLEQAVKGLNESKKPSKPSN

Regarding `CCC[C@H](C(=O)O)[C@H](Cc1ccc(Br)nc1)c1nnn[nH]1` [Example 143], the results for the negative-log IC50 (pIC50) on VIM-1, at NDM-1 (setting [4]) and on IMP-1 were 8.59, 7.28 and 5.77, respectively. Further, the “NDM1 EC30005 MITC95” value in test [1] was found to be 12.5 µM. Also, the “VIM1 KP599644 MITC95” value in test [2] turned out to be 100 µM. Moreover, in test [3], the “IMP1 SM5741 MITC95” value was greater than 200 µM.

`CCC[C@H](C(=O)O)[C@H](Cc1ccc(N2CCNCC2)nc1)c1nnn[nH]1` [Example 145, (S)-2-((S)-2-(6-(piperazin-1-yl)pyridin-3-yl)-1-(1H-tetrazol-5-yl)ethyl)pentanoic acid]: the pIC50 is 7.74 on VIM-1; 6.15 at NDM-1 (NDM1 IC50, enzyme 1 pM); 4.92 on IMP-1. Also, in test [1], the “NDM1 EC30005 MITC95” value amounted to 6.2 µM. For the same compound, the “VIM1 KP599644 MITC95” value in test [2] was 75 µM. The “IMP1 SM5741 MITC95” value in test [3] amounted to 200 µM.

As for `CCC[C@H](C(=O)O)[C@H](Cc1ccc(-c2c(C)nn(C)c2C)nc1)c1nnn[nH]1` [Example 158, (S)-2-((S)-1-(1H-tetrazol-5-yl)-2-(6-(1,3,5-trimethyl-1H-pyrazol-4-yl)pyridin-3-yl)ethyl)pentanoic acid], the negative-log IC50 (pIC50) on VIM-1 was 7.60; on NDM-1 (setting [4]) it was 7.85; at IMP-1 it was 7.21. In test [1], the “NDM1 EC30005 MITC95” value stood at 62 µM. The “VIM1 KP599644 MITC95” value in test [2] was 100 µM. The “IMP1 SM5741 MITC95” value in test [3] came to 12.5 µM.

Turning to `CCCC[C@@H](C(=O)O)[C@@H](Cc1ccc(-c2ccc(S(N)(=O)=O)cc2)cc1)c1nn[nH]n1` [Example 184, (2R)-2-[(1R)-2-(4′-sulfamoylbiphenyl-4-yl)-1-(2H-tetrazol-5-yl)ethyl]hexanoic acid], the pIC50 is 6.52 at VIM-1, 6.05 at NDM-1 (setting [4]) and 6.70 on IMP-1. In addition, in test [1], the “NDM1 EC30005 MITC95” value was greater than 200 µM. Besides, the “VIM1 KP599644 MITC95” value in test [2] was greater than 200 µM. The “IMP1 SM5741 MITC95” value in test [3] was 100 µM.

Take `CCCC[C@@H](C(=O)O)[C@@H](Cc1ccc(-c2c(C)nn(C)c2C)cc1)c1nn[nH]n1` [Example 185, (2R)-2-{(1R)-1-(2H-tetrazol-5-yl)-2-[4-(1,3,5-trimethyl-1H-pyrazol-4-yl)phenyl]ethyl}hexanoic acid]: the pIC50 was 6.13 on VIM-1, 6.06 at NDM-1 (setting [4]) and 7.96 on IMP-1. For the same compound, the “NDM1 EC30005 MITC95” value in test [1] is greater than 200 µM. Moreover, in test [2], the “VIM1 KP599644 MITC95” value is greater than 200 µM. For the same compound, in test [3], the “IMP1 SM5741 MITC95” value is 100 µM.

Take `CCCC[C@@H](C(=O)O)[C@@H](Cc1ccc(-c2cn[nH]c2)cc1)c1nn[nH]n1` [Example 186, (2R)-2-[(1R)-2-[4-(1H-pyrazol-4-yl)phenyl]-1-(2H-tetrazol-5-yl)ethyl]hexanoic acid]: the pIC50 on VIM-1 is 7.22; at NDM-1 (setting [4]) it was 6.12; on IMP-1, 6.85. Besides, the “NDM1 EC30005 MITC95” value in test [1] stood at 200 µM. Moreover, the “VIM1 KP599644 MITC95” value in test [2] was greater than 200 µM. For the same compound, the “IMP1 SM5741 MITC95” value in test [3] is 12.5 µM.

Regarding `CCCC[C@@H](C(=O)O)[C@@H](Cc1ccc(-c2cnn(-c3ccccc3)c2)cc1)c1nn[nH]n1` [Example 187, (2R)-2-[(1R)-2-[4-(1-phenyl-1H-pyrazol-4-yl)phenyl]-1-(2H-tetrazol-5-yl)ethyl]hexanoic acid], the values for the negative logarithm of the IC50 (pIC50) at VIM-1, on NDM-1 (setting [4]) and on IMP-1 were 6.85, 6.01 and 6.74, respectively. Moreover, the “NDM1 EC30005 MITC95” value in test [1] was greater than 200 µM. Moreover, in test [2], the “VIM1 KP599644 MITC95” value is greater than 200 µM. For the same compound, the “IMP1 SM5741 MITC95” value in test [3] is 103 µM.

Take `CCCC[C@@H](C(=O)O)[C@@H](Cc1ccc(-c2ccccc2)cc1)c1nn[nH]n1` [Example 188, (2R)-2-[(1R)-2-biphenyl-4-yl-1-(2H-tetrazol-5-yl)ethyl]hexanoic acid]: the negative-log IC50 (pIC50) is 6.74 at VIM-1, 6.19 on NDM-1 (setting [4]) and 6.85 at IMP-1. Further, the “NDM1 EC30005 MITC95” value in test [1] was greater than 200 µM. The “VIM1 KP599644 MITC95” value in test [2] was greater than 200 µM. Moreover, the “IMP1 SM5741 MITC95” value in test [3] worked out at 53 µM.

Turning to `CCC[C@H](C(=O)O)[C@H](Cc1ccc(-c2ccc(N(C)C)nc2)cc1)c1nn[nH]n1` [Example 189, (2S)-2-[(1S)-2-{4-[6-(dimethylamino)pyridin-3-yl]phenyl}-1-(2H-tetrazol-5-yl)ethyl]pentanoic acid], the pIC50 on VIM-1 is 8.37; at NDM-1 (setting [4]), 7.89; on IMP-1, 7.54. The “NDM1 EC30005 MITC95” value in test [1] stood at 2.3 µM. In test [2], the “VIM1 KP599644 MITC95” value was 100 µM. Also, the “IMP1 SM5741 MITC95” value in test [3] was 7.8 µM.

On to `CCC[C@H](C(=O)O)[C@H](Cc1ccc(-c2cncc(N3CCN(C)CC3)c2)cc1)c1nn[nH]n1` [Example 190, (2S)-2-[(1S)-2-{4-[5-(4-methylpiperazin-1-yl)pyridin-3-yl]phenyl}-1-(2H-tetrazol-5-yl)ethyl]pentanoic acid], for which the negative-log IC50 (pIC50) on VIM-1 is 8.27; at NDM-1 (setting [4]) it was 6.96; on IMP-1, 6.21. For the same compound, in test [1], the “NDM1 EC30005 MITC95” value came to 9.4 µM. Also, in test [2], the “VIM1 KP599644 MITC95” value came to 75 µM. In addition, the “IMP1 SM5741 MITC95” value in test [3] was 38 µM.

With `CCC[C@H](C(=O)O)[C@H](Cc1ccc(-c2cncc(CN3CCCCC3)c2)cc1)c1nn[nH]n1` [Example 191, (2S)-2-[(1S)-2-{4-[5-(piperidin-1-ylmethyl)pyridin-3-yl]phenyl}-1-(2H-tetrazol-5-yl)ethyl]pentanoic acid], the figures for the pIC50 on VIM-1, on NDM-1 (setting [4]) and at IMP-1 were 8.08, 6.59 and 5.96, respectively. Besides, the “NDM1 EC30005 MITC95” value in test [1] worked out at 25 µM. In addition, the “VIM1 KP599644 MITC95” value in test [2] came to 62 µM. Also, the “IMP1 SM5741 MITC95” value in test [3] worked out at 62 µM.

`CCC[C@H](C(=O)O)[C@H](Cc1ccc(-c2ccc(C(C)N3CCOCC3)cc2)cc1)c1nn[nH]n1` (stereo partly drawn) [Example 192, (2S)-2-[(1S)-2-[4′-(1-morpholin-4-ylethyl)biphenyl-4-yl]-1-(2H-tetrazol-5-yl)ethyl]pentanoic acid]: the negative-log IC50 (pIC50) on VIM-1 is 7.54; on NDM-1 (setting [4]), 7.54; on IMP-1 it was 7.35. Moreover, the “NDM1 EC30005 MITC95” value in test [1] turned out to be 7.8 µM. Moreover, in test [2], the “VIM1 KP599644 MITC95” value was 200 µM. The “IMP1 SM5741 MITC95” value in test [3] was 9.4 µM.

Regarding `CCC[C@H](C(=O)O)[C@H](Cc1ccc(-c2ccc3c(c2)CCC(N)C3)cc1)c1nn[nH]n1` (stereo partly drawn) [Example 193, (2S)-2-[(1S)-2-[4-(6-amino-5,6,7,8-tetrahydronaphthalen-2-yl)phenyl]-1-(2H-tetrazol-5-yl)ethyl]pentanoic acid], the pIC50 at VIM-1 is 7.74; at NDM-1 (setting [4]), 7.24; at IMP-1 it was 7.35. The “NDM1 EC30005 MITC95” value in test [1] worked out at 4.7 µM. Moreover, in test [2], the “VIM1 KP599644 MITC95” value turned out to be 50 µM. For the same compound, the “IMP1 SM5741 MITC95” value in test [3] turned out to be 6.2 µM.

For the compound `CCC[C@H](C(=O)O)[C@H](Cc1ccc(-c2cccc(OC3CCNCC3)n2)cc1)c1nn[nH]n1` [Example 194, (2S)-2-[(1S)-2-{4-[6-(piperidin-4-yloxy)pyridin-2-yl]phenyl}-1-(2H-tetrazol-5-yl)ethyl]pentanoic acid], the pIC50 was 8.17 at VIM-1, 6.77 at NDM-1 (setting [4]) and 6.19 at IMP-1. Also, in test [1], the “NDM1 EC30005 MITC95” value was determined as 27 µM. Besides, the “VIM1 KP599644 MITC95” value in test [2] was determined as 50 µM. The “IMP1 SM5741 MITC95” value in test [3] was 75 µM.

In the case of `CCC[C@H](C(=O)O)[C@H](Cc1ccc(-c2cccc(C3CCCNC3)c2)cc1)c1nn[nH]n1` (stereo partly drawn) [Example 195, (2S)-2-[(1S)-2-(3′-piperidin-3-ylbiphenyl-4-yl)-1-(2H-tetrazol-5-yl)ethyl]pentanoic acid], the pIC50 is 7.96 on VIM-1, 7.07 at NDM-1 (setting [4]) and 6.96 at IMP-1. In test [1], the “NDM1 EC30005 MITC95” value came out at 4.7 µM. For the same compound, the “VIM1 KP599644 MITC95” value in test [2] was 38 µM. The “IMP1 SM5741 MITC95” value in test [3] was found to be 28 µM.

Consider `CCC[C@H](C(=O)O)[C@H](Cc1ccc(-c2cnc(N3CCCC3)s2)cc1)c1nn[nH]n1` [Example 196, (2S)-2-[(1S)-2-[4-(2-pyrrolidin-1-yl-1,3-thiazol-5-yl)phenyl]-1-(2H-tetrazol-5-yl)ethyl]pentanoic acid], for which the negative logarithm of the IC50 (pIC50) was 8.39 at VIM-1, 8.02 at NDM-1 (setting [4]) and 7.35 on IMP-1. Also, the “NDM1 EC30005 MITC95” value in test [1] was 7.8 µM. The “VIM1 KP599644 MITC95” value in test [2] is 125 µM. In test [3], the “IMP1 SM5741 MITC95” value is 14 µM.

Turning to `CCC[C@H](C(=O)O)[C@H](Cc1ccc(-c2ccc(S(N)(=O)=O)cc2)cc1)c1nn[nH]n1` [Example 197, (2S)-2-[(1S)-2-(4′-sulfamoylbiphenyl-4-yl)-1-(2H-tetrazol-5-yl)ethyl]pentanoic acid], the pIC50 at VIM-1 is 9.05; on NDM-1 (setting [4]) it was 8.31; at IMP-1, 7.55. Moreover, the “NDM1 EC30005 MITC95” value in test [1] turned out to be 4.7 µM. Besides, the “VIM1 KP599644 MITC95” value in test [2] is 18.8 µM. Also, the “IMP1 SM5741 MITC95” value in test [3] turned out to be 14 µM.
